In series [1] the target is T1, human mGluR5 (Homo sapiens, UniProt P41594).
T1 construct: expressed in transfected cells; host or cells: AV-12 cells (ATCC) containing the rat EAAT1 glutamate transporter
In words: Functional in vitro activity at human mGluR5 receptors (FLIPR calcium assay, antagonism of glutamate EC90 response). The series is classed as cell-based. The settings on record: AV-12 cells expressing recombinant human mGluR5a and rat EAAT1, relative IC50, read-out: IC50 measured at mGluR5. An excerpt:
Functional in Vitro Activity at Human mGluR5; and mGluR1; Receptors
The activation of G-protein coupled receptors (GPCRS) that are coupled to GTP-binding protein alpha q (Gq proteins) results in a change in intracellular calcium concentration. This functional response can be measured in a kinetic assay using calcium-sensitive dyes and a fluorescent imaging plate reader using a standard technique known as FLIPR (MDS Analytical Technologies, Sunnyvale, Calif.). Stable cell line preparation and assay techniques are adapted from Kingston, A. E., et. al. (1995) Neuropharmacology 34: 887-894. […]
For the functional assays, cells are seeded in growth medium lacking selection antibiotics at a density of 65K per well into 96-well, black/clear bottom, poly-D-lysine coated microplates and incubated for 18-20; hours prior to the experiment. […] The antagonist effects of compounds are quantified in the FLIPR instrument in 10-point dose curves by comparing the peak fluorescent responses to the agonist glutamate in the presence and absence of compound. Specifically, the compound effect is measured as maximal minus minimal peak heights in relative fluorescent units corrected for basal fluorescence as measured in the absence of glutamate. […]

Series [2] concerns stress-induced hyperthermia in rats. In words: Attenuation of stress-induced hyperthermia in rats. The settings on record: male Fischer F-344 rats, p.o., 60 min pretreatment, T2-T1 rectal temperature. The series is classed as in vivo, rat. An excerpt: Attenuation of Stress-Induced Hyperthermia in Rats
In many anxiety disorders, hyperthermia occurs as part of the pathology and is considered a symptom of the disease. Compounds which attenuate stress-induced hyperthermia in animals are believed to be useful in treating anxiety disorders in humans.
The conventional and minimally-invasive method for analyzing stress-induced hyperthermia is by measuring body temperature, and stress-induced increases in body temperature, via rectal thermometer. Male Fischer F-344; rats (Harlan, Indianapolis, Ind., USA) weighing between 275-350; g are tested. All animals are individually-housed with food and automated water available ad libitum, and maintained on a 12; h light/dark cycle (lights on at 06:00). Animals are fasted for approximately 12-18; hours before the experiment, which is conducted during the light phase. […]
After the pretreatment period, rats are taken individually to a brightly lit adjacent room where baseline body temperatures are determined by insertion of a rectal probe lubricated with mineral oil. Body temperature is assessed using a PHYSITEMP BAT-12® Microprobe Thermometer with a PHYSITEMP RET-2® rat rectal probe (Physitemp Instruments Inc., Clifton, N.J., USA). […] Ten minutes later a second body temperature measurement is recorded (T2). […]

T1 sequence (P41594 21-1180 isoform P41594-2 limits assumed): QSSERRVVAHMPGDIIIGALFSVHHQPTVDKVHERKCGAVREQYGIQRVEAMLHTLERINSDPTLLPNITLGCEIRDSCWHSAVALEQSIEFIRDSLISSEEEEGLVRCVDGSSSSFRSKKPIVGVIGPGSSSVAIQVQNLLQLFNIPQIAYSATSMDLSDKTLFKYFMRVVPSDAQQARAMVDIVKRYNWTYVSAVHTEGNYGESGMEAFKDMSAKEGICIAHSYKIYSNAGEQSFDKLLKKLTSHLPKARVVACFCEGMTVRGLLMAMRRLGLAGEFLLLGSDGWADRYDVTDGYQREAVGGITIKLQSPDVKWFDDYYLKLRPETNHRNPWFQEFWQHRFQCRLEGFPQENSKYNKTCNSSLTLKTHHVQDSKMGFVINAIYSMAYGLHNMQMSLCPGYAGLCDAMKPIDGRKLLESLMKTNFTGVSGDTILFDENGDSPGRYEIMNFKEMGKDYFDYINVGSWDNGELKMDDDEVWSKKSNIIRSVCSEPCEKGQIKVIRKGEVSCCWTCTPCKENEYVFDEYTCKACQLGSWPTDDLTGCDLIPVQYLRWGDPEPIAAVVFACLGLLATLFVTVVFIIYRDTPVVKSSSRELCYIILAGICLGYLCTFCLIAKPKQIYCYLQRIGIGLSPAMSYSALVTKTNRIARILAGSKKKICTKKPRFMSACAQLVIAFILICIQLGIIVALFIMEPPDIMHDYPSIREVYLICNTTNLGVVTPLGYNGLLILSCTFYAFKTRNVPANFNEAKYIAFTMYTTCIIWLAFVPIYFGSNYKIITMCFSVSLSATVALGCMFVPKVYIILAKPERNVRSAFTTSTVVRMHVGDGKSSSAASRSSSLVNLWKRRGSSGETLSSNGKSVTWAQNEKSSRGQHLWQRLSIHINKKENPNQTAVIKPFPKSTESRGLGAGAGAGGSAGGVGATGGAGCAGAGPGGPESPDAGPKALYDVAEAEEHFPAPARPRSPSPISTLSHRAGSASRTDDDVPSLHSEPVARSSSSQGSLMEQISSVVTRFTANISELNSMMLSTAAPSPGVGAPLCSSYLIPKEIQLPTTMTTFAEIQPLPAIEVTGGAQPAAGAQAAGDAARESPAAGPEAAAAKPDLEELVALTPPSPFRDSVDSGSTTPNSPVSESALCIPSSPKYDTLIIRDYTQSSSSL

In general, IC50 refers to the concentration that inhibits the measured activity by half. Take `CCc1cccc(-c2c(-c3ccc4nn(C)cc4c3)nsc2NC(=O)[C@@H]2C[C@H]2C)n1.Cl` [Example 2, (1R,2R)-2-methyl-cyclopropanecarboxylic acid [4-(6-ethyl-pyridin-2-yl)-3-(2-methyl-2H-indazol-5-yl)-isothiazol-5-yl]-amide hydrochloride]: the concentration for half-maximal inhibition (IC50) in series [1] was found to be 9.5 nM. The “T35 dose (dose producing a 35% reduction in stress-induced hyperthermic response relative to vehicle)” value in series [2] is 3.0 mg/kg.

A word on the melting point: it is the temperature of the solid-liquid transition. `CCc1cccc(-c2c(-c3ccc4nn(C)cc4c3)nsc2NC(=O)[C@@H]2C[C@H]2C)n1` [Example 22, (1R,2R)-2-methyl-cyclopropanecarboxylic acid [4-(6-ethyl-pyridin-2-yl)-3-(2-methyl-2H-indazol-5-yl)-isothiazol-5-yl]-amide] came in with a melting point of 159.4 °C.

In turn, `CC(C)c1cccc(-c2c(-c3ccc4nn(C)cc4c3)nsc2NC(=O)[C@@H]2C[C@H]2C)n1` [Example 23, (1R,2R)-2-methyl-cyclopropanecarboxylic acid [4-(6-isopropyl-pyridin-2-yl)-3-(2-methyl-2H-indazol-5-yl)-isothiazol-5-yl]-amide] came in with a melting point of 142 to 144 °C.

Values taken from patent US7932274B2, “3-indazolyl-4-pyridylisothiazoles” (Eli Lilly and Company, priority 2008, dated 2011).
